From patent USRE46604E1, “Treatment of circadian rhythm disorders” (VANDA PHARMACEUTICALS, INC., priority 2012, dated 2017) come the findings set out here.

Read-outs that look alike come from different tables or passages of the source.

One data set deals with T1, MT2R (Homo sapiens, UniProt P49286).
T1 sequence (P49286 1-362): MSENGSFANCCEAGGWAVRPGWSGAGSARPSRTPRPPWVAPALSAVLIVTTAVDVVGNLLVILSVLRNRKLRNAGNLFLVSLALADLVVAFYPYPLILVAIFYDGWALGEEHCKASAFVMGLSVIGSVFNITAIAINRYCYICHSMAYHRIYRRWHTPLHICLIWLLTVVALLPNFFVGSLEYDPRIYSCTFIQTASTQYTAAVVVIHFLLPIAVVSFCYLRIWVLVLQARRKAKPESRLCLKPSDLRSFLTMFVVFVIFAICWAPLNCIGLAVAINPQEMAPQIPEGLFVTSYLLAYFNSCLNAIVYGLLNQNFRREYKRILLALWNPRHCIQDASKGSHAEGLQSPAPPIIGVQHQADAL
The data set can be described thus: Melatonin receptor MT2R affinity. Type of data set: binding.

Another data set concerns Non-24 patients. The data set can be described thus: Entrainment by baseline peak aMT6s and beta blocker status (clinical studies). Type of data set: in vivo, humans. On the procedure: A useful protocol for estimating tau in candidates for clinical testing for treatment of Non-24, which method can be applied to diagnosis of Non-24 in a given patient, is as follows: • Each subject will undergo four 48-hour urine collection sessions at nominal days 7, 14, 21, and 28. During each session, the start of the session and the time of each void will be recorded. Urine collected over periods of 4 hours (with the first 4 hour collection period of the day beginning at scheduled wake time), or about 8 hours during sleep, will be pooled (the “collection interval”); thus, subjects will have a total of 10 urine collection intervals during each 48-hour period. A study nurse will determine the volume of urine collected during each interval (urine will be transferred to a graduated cylinder) and an aliquot will be assayed for aMT6s. • For each collection interval, the start and end time of the interval will be used to determine the midpoint and duration of the interval. The start time of a given interval is defined as the last void time from the prior 4 hour (or 8 hour) collection interval; the end time of a given interval is defined as the last void time within the collection interval. • The mass of the primary melatonin metabolite (aMT6s) excreted during the interval will be determined as the product of aMT6s concentration and volume of urine. Rate of aMT6s excretion will be determined as the mass of aMT6s excreted divided by the duration of the interval. […] For screening there will be occasions when the 4 different weeks that urine collections are conducted will span a change in the clock time. Therefore, all urine collection times will be automatically translated into local standard time for calculations and then translated back to DST for reporting purposes, if appropriate. • In certain situations, urine collections or their recording will be incomplete. The following procedures will be invoked to address this: • 1. If a subject fails to timestamp a void, no action will be taken if there are multiple voids with timestamps within one interval. • 2. If there is only one void in a collection interval, and the patient cannot recall the time of the void then the entire 48 hour collection period will be excluded from the analysis and the subject will be requested to collect an additional 48 hours of urine after Day 28. It would not be possible to accurately determine to which collection interval the unmarked urine belongs. Consequently, the appropriate assignment of start and stop times to all of the collection intervals would be questionable. • 3. If a void is discarded by the patient but the time of the void is known, duration associated with that void (time of the void minus the time of the previous void) will be subtracted from the total duration associated with that interval. This modified duration will be used to calculate rate of aMT6s excretion. If a discarded sample is either the first or last of the samples in an interval, the midpoint of that interval will be calculated without considering that sample. • 4. If fewer than 4 samples are available for one 48-hour collection session, fitting of the cosine will be compromised (inadequate degrees of freedom). Consequently, acrophase will not be determined if fewer than four samples are available. • For each session, acrophase will be determined by fitting a cosine to the data from that session using unweighted non-linear regression. Fitting will be performed using a non-linear least squares fitting algorithm. The fitting process will estimate phase shift, mesor, and amplitude and their respective standard errors; period of the cosine will be fixed to 24 hours.* • Acrophase will be determined as the phase shift modulus 24 hours. • If acrophase values are available for three or more sessions, tau will be calculated using the following procedure: • 1. Acrophase will be recalculated relative to day 0 (24·start day for each session+acrophase). • 2. […]

A short description of data set [1]: Effect of smoking on pharmacokinetics. Type of data set: in vivo, human. Conditions: for Vd/F: read-out: Vz/F; for half-life: read-out: t½ (converted). From the text:
Smokers were defined as those smoking 10 or more cigarettes per day. Non-smokers were defined as those smoking no cigarettes per day.

The next data set deals with MT1R (Homo sapiens, UniProt P48039). The data set can be described thus: Melatonin receptor MT1R affinity. Type of data set: binding.
MT1R, sequence (P48039 whole entry): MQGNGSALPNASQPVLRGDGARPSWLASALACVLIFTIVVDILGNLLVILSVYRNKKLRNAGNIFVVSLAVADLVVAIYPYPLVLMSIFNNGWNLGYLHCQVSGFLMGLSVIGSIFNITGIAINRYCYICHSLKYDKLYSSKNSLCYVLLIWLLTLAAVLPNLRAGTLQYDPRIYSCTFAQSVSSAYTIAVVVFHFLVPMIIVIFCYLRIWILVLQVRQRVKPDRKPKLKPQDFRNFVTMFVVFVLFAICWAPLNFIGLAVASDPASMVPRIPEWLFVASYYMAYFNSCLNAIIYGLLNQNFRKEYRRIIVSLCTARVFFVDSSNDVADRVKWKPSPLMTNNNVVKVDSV
A short description of a further data set: tmax as stated in text. Conditions: in vivo.
A short description of data set [2]: Fluvoxamine co-administration pharmacokinetic study. Type of data set: in vivo, human. As to the method:
Twenty-four healthy male or female subjects between the ages of 18 and 55 years of age (inclusive) who were non-smokers with a body mass index (BMI) of ≧18 and ≦35 kg/m2 participated in this open-label, single-sequence study conducted at one site. On day 1, subjects were administered 5.667 mg of tasimelteon.

Where [3] appears, read: human, in vivo, Smokers (10 or more cigarettes per day).
The mark [4] stands for this setting: both sexes, human, in vivo, Day 1: 5.667 mg tasimelteon alone.
The mark [5] stands for this setting: compared to tasimelteon administered alone.
The mark [6] stands for this setting: Smokers (10 or more cigarettes per day).

A word on the Ki: it is the equilibrium dissociation constant of an inhibitor or competing ligand from its target. Low values mean tighter binding, high ones weaker binding. As to `CCC(=O)NC[C@@H]1C[C@H]1c1cccc2c1CCO2` (relative stereo) [Tasimelteon, trans-N-[[2-(2,3-dihydrobenzofuran-4-yl)cycloprop-1yl]methyl]propanamide], the results for the Ki at MT2R and at MT1R were 0.1 to 0.2 nM and 0.3 to 0.4 nM, respectively. For the same compound, the “Entrained, percent of patients” value in the data set with Non-24 patients (Peak aMT6s <1500 ng/hr) came out at 41%; with Non-24 patients (Peak aMT6s <2000 ng/hr) it was 38%; in the data set on Non-24 patients (Peak aMT6s ≧1500 ng/hr), 67%; in the data set on Non-24 patients (Peak aMT6s ≧2000 ng/hr), 85%; with Non-24 patients (Peak aMT6s: All), 51%. Moreover, the “Non-entrained, percent of patients” value in the data set on Non-24 patients (Peak aMT6s <1500 ng/hr) is recorded as 59%; in the data set on Non-24 patients (Peak aMT6s <2000 ng/hr), 62%; in the data set with Non-24 patients (Peak aMT6s ≧1500 ng/hr) it was 33%; in the data set on Non-24 patients (Peak aMT6s ≧2000 ng/hr), 15%; with Non-24 patients (Peak aMT6s: All), 49%. Moreover, the AUC(0-inf) is 389 ± 429 ng·h/mL in data set [1] (human, in vivo, Non-Smokers); 205 ± 152 ng·h/mL in data set [1] (setting [3]); 102 ± 61.5 ng·h/mL in data set [2] (setting [4]). In addition, the Cmax was 239 ± 177 ng/mL in data set [1] (human, in vivo, Non-Smokers); 136 ± 59.5 ng/mL in data set [1] (setting [3]); 68 ± 28.9 ng/mL in data set [2] (setting [4]). Also, the Tmax was 30 min in data set [1] (human, in vivo, Non-Smokers, read-out: Tmax); 45 min in data set [1] (human, in vivo, Smokers (10 or more cigarettes per day), read-out: Tmax); “approximately one-half” in the data set “tmax as stated in text”; 30 min in data set [2] (setting [4]). Also, the Vd/F in data set [1] (human, in vivo, Non-Smokers) is 133 ± 83 L; in data set [1] (setting [3]) it was 189 ± 94.2 L. Besides, the half-life in data set [1] (human, in vivo, Non-Smokers) is 70.8 ± 27.6 min; in data set [1] (setting [3]), 59.4 ± 10.8 min; in data set [2] (both sexes, human, in vivo, Day 1: 5.667 mg tasimelteon alone, read-out: t½ (converted)), 72 ± 13.2 min. For the same compound, the “increase of AUC0-inf upon co-administration of fluvoxamine” value in data set [2] (setting [5]) is on record as “approximately 7 fold”. In data set [2] (setting [5]), the “increase of Cmax upon co-administration of fluvoxamine” value is reported as “approximately 2 fold”.

For `CCC(=O)NCC1CC1c1cccc2c1C(O)CO2` (centres unmarked) [M14], in data set [1] (setting [6]), the “AUC (inf)” value stood at 9.45 ± 11.88 h x ng/mL and the Tmax was determined as 45 min.

As to `CCC(=O)NCC1CC1c1cccc2c1C(O)CO2` (centres unmarked) [M12], in data set [1] (setting [6]), the “AUC (inf)” value was 526 ± 193 h x ng/mL and the Tmax was 60 min.

With `CCC(=O)NC[C@@H]1CC1c1cccc(O)c1CC(=O)O` (some centres unmarked) [M11], the AUC(0-inf) in data set [2] (setting [4]) stood at 104 ± 30 ng·h/mL.

In the case of `CCC(=O)NC[C@@H]1CC1c1cccc(O)c1CCO` (some centres unmarked) [M9], the AUC(0-inf) in data set [2] (setting [4]) is 44.5 ± 17.2 ng·h/mL.
